Key:
DAT = DAT (Rattus norvegicus (Rat), UniProt P23977); assay: DA release study; assay type: biochemical
hCav1.2 = hCav1.2 (Homo sapiens (Human), UniProt Q13936); assay: hCav1.2 (L-type) Calcium Channel Assay, Qube APC; assay type: cell-based; settings: Cav1.2, Antagonist mode, test compound
Protocol: (§1) Where presented, IC50 values were determined by a non-linear, least squares regression analysis.
(§2) Recombinant HEK-293 cells stably transfected with human Nav1.5 cDNA, recombinant HEK293 cell line expressing the human Cav1.2 (L-type voltage gated calcium channel, hCav1.2 α1C/β2a/α2δ1, and recombinant CHO-K1 cells stably transfected with human hERG cDNA were used separately in each of these assays.
hCav1.2 (L-type) Calcium Channel Assay—Qube APC After whole cell configuration is achieved, the cells are held at −90 mV. Cav1.2 currents are evoked by a 50 ms pulse to −100 mV followed by a 200 ms pulse to +20 mV before returning to the holding potential of −90 mV. This paradigm is delivered three times every 60 s to monitor the current amplitude.

hERG = hERG (Homo sapiens (Human), UniProt Q12809); assay: hERG Potassium Channel Assay, Qube APC; assay type: cell-based; settings: Antagonist mode, test compound
Protocol: as §1, §2
hERG Potassium Channel Assay—Qube APC After whole cell configuration is achieved, the cells are held at −80 mV. Cells are held at this voltage for 50 ms to measure the leak current, which is subtracted from the tail current on-line. The cells are depolarized to +40 mV for 500 ms and then to −80 mV over a 100 ms ramp to elicit the hERG tail current. This paradigm is delivered once every 8 s to monitor the current amplitude.

hKCNQ1/hminK = hKCNQ1/hminK (Homo sapiens (Human), UniProt P51787); assay: hKCNQ1/hminK Potassium Channel Assay, Qube APC; assay type: cell-based; settings: KCNQ1/mink, Antagonist mode, test compound
Protocol: (§3) Electrophysiological assays were conducted to profile three compounds ((R)-methylone, (S)-methylone, or racemic methylone) for activities on the ion channel targets specified below using the Qube electrophysiological platform. Where presented, IC50 values were determined by a non-linear, least squares regression analysis. Reference standards were run as an integral part of each assay to ensure the validity of the results obtained.
(§4) Ion Channels tested were Eurofins Panel Part Number: CPROFullQB2DR Voltage-Gated Sodium: HEK-Nav1.5 (Peak), HEK-Nav1.5 (Late, Antagonist) Voltage-Gated Potassium: HEK-Kv4.3/KChIP2, CHO-hERG, CHO-KCNQ1/minK Voltage-Gated Calcium: HEK-Cav1.2 Inward-Rectifying Voltage-Gated Potassium: HEK-Kir2.1.
hKCNQ1/hminK Potassium Channel Assay—Qube APC After whole cell configuration is achieved, the cells are held at −80 mV. KCNQ1/minK currents are evoked by a 1000 ms pulse from −80 mV to 60 mV followed by a ramp from 60 mV to −80 mV over 115 ms with the outward peak currents measured upon depolarization of the cell membrane. This paradigm is delivered once every 15 s to monitor the current amplitude.

cardiac ion channels = assay: In vitro cardiovascular safety screening test (ion channel panel, overall); assay type: cell-based, human; settings: whole panel
Protocol: An in vitro cardiovascular safety screening test was run to investigate the effects of racemic methylone and two methylone stereoisomers ((R)-methylone and (S)-methylone) on selected ion channels critically linked to cardiovascular function and activity.
as §3, §4

[1] = test system: rat forced swim test (FST); assay: Rat forced swim test (FST); assay type: in vivo; settings: single dose 10 mg/kg IP, 30 min before testing
Protocol: All FST studies are performed and scored by an experimenter blind to treatment group and according to standard protocols. Briefly, rats are placed in a circular plexiglass container filled with water. Water temperature is maintained at 22-25° C. and changed for every animal. Day 1 (Training) consists of a 15 min acclimation trial, and Day 2 (Testing, 24 h later) consists of the 5 min test. A time sampling procedure is employed where animals are observed every 5 seconds for the duration of the test session (60 counts or 5 minutes) and scored for immobility (defined as the failure to struggle), swimming (defined as a circular movement around the tank), or climbing (defined as an upwards escape behavior). Data are expressed as the percent of the testing session (e.g., the number of immobility counts divided by 60). A p-value less than 0.05 indicates statistical significance after typical statistical analyses (e.g., unpaired t-test or ANOVA).
To determine that the prodrug and/or enantiomer has an antidepressant-like effect and to compare it to methylone, rats are treated with each compound 30 min prior to testing. Additional tests are run 24, 72, 168 hours post-dose or longer.
Racemic methylone (10 mg/kg, IP) has a maximal antidepressant-like effect in the rat forced swim test (FST), reducing immobility by nearly 100% compared to vehicle treated controls. To determine whether one enantiomer of methylone could mimic the robust antidepressant-like effect of racemic methylone, rats were treated with a single dose of racemic methylone, (R)-methylone, (S)-methylone (all 10 mg/kg, IP) or vehicle 30 min before testing in the FST. […] Therefore, all of the activity of methylone appears to be driven by the activity of one enantiomer ((S)-methylone).

Sequence of hCav1.2 (Q13936 whole entry, looked up): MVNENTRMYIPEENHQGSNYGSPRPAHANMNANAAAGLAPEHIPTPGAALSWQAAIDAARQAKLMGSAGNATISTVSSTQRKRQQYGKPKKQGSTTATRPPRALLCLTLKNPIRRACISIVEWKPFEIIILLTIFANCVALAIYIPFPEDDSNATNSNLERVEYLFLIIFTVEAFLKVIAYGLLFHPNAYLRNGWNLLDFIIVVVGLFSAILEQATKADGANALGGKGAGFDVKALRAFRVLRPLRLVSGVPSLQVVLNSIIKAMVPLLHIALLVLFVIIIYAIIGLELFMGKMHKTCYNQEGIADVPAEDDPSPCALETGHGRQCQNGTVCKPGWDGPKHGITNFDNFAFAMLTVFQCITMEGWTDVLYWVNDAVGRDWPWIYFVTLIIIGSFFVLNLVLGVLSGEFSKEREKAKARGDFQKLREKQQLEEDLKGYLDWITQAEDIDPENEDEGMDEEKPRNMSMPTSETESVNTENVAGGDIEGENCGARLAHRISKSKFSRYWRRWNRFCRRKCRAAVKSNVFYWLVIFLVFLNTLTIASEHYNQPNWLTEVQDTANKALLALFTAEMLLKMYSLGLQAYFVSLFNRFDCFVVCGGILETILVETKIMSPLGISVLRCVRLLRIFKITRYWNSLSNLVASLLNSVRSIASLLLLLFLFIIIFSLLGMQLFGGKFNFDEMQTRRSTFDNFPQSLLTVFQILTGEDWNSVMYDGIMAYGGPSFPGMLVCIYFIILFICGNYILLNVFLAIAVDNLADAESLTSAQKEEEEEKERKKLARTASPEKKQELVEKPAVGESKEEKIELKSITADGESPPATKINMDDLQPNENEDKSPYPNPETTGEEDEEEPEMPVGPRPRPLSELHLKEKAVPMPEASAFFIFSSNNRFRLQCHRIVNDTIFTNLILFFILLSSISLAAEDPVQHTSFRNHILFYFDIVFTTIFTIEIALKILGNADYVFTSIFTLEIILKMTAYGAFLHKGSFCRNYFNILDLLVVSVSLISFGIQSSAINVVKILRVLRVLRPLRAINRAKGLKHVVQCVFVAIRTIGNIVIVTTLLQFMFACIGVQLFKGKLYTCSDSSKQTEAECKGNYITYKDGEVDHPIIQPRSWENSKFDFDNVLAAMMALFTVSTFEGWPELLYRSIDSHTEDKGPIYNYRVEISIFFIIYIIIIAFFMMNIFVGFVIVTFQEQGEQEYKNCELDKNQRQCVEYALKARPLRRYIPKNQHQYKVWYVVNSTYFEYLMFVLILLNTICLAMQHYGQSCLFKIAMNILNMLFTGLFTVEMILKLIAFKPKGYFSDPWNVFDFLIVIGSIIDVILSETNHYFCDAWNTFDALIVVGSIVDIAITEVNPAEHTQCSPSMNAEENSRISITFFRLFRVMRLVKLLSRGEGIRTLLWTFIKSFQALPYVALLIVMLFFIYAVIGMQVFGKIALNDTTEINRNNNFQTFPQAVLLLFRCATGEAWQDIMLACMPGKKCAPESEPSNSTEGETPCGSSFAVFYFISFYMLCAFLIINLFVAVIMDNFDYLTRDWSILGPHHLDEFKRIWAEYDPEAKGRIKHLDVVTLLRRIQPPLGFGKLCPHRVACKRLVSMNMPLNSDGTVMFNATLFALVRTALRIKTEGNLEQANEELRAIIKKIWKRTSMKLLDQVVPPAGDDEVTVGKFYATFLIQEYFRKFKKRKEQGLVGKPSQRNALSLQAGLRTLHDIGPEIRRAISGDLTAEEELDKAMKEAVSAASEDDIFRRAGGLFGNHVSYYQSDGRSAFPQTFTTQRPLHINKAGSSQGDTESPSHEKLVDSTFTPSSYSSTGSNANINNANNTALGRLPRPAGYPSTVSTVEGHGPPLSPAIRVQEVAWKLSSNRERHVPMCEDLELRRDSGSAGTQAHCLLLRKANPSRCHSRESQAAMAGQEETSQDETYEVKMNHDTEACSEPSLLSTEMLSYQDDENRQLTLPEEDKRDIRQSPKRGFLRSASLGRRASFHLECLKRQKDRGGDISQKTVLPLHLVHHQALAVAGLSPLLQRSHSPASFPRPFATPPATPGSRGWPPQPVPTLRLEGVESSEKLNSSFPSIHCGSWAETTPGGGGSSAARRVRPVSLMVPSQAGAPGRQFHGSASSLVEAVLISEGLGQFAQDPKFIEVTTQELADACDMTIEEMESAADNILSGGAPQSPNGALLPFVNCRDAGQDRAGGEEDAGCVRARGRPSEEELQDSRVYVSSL
Sequence of hCav1.2 (Q08289 whole entry partner, looked up): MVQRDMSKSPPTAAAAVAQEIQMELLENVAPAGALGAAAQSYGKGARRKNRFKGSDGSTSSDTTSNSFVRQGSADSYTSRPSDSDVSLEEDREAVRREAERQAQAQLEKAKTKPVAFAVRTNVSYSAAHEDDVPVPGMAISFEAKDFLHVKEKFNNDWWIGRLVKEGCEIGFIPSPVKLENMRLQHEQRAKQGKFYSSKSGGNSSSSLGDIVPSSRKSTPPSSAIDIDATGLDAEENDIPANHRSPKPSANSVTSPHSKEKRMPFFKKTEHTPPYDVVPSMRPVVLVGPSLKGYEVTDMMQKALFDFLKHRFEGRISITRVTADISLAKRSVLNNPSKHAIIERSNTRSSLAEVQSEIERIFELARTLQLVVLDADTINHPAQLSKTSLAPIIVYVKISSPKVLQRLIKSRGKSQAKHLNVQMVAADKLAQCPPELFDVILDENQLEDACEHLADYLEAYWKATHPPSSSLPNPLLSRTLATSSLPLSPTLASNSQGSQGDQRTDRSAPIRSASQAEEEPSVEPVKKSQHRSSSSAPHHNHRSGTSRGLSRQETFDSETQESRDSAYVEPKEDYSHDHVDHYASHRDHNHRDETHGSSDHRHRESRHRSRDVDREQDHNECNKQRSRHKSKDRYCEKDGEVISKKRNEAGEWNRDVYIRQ
Sequence of hCav1.2 (P54289 whole entry partner, looked up): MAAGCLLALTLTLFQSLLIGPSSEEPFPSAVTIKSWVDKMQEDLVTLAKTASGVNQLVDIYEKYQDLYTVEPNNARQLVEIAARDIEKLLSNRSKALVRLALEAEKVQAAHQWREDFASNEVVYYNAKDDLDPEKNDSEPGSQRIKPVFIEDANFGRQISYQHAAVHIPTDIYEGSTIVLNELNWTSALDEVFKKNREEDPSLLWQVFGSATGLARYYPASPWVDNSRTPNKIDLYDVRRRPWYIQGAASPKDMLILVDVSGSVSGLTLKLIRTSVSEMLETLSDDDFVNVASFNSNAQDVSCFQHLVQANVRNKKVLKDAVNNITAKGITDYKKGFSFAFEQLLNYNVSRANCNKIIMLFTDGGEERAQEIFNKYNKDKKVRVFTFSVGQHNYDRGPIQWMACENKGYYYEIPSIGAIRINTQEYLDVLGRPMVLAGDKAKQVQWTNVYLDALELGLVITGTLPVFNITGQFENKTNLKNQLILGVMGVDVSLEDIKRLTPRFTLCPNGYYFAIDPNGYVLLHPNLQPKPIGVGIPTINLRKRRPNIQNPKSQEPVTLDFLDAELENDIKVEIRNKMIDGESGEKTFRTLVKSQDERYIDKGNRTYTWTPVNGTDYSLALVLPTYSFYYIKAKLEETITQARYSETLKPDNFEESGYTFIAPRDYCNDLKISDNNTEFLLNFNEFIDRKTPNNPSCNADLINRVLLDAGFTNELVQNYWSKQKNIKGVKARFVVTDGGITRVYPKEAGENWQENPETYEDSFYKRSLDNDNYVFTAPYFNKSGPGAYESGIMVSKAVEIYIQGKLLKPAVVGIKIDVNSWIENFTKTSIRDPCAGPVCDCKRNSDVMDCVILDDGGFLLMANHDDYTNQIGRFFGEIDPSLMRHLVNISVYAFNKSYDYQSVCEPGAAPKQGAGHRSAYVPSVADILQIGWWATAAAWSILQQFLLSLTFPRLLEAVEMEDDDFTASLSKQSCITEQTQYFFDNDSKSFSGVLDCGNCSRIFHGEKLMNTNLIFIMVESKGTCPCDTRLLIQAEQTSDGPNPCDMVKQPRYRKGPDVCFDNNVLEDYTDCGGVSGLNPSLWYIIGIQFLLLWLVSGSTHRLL
Sequence of hCav1.2 (P54289 whole entry partner, looked up): as above

Row | SMILES | EC50 (DAT) | Estimated IC50 (hCav1.2) | Estimated IC50 (hERG) | Estimated IC50 (hKCNQ1/hminK) | Effect on the cardiac ion channels tested (cardiac ion channels) | Antidepressant-like effect in the FST [1]
1 | CN[C@H](C)C(=O)c1ccc2c(c1)OCO2 [(R)-methylone] | 4.77 µM | N/C (N/C indicates observed mean inhibition was <25%) | N/C (N/C indicates observed mean inhibition was <25%) | N/C (N/C indicates observed mean inhibition was <25%) | do not directly inhibit the activity of cardiac channels | no effect
2 | CN[C@@H](C)C(=O)c1ccc2c(c1)OCO2 [(S)-methylone] | 3.28 µM | N/C (N/C indicates observed mean inhibition was <25%) | N/C (N/C indicates observed mean inhibition was <25%) | N/C (N/C indicates observed mean inhibition was <25%) | do not directly inhibit the activity of cardiac channels | mimicked the rapid and robust antidepressant-like effect of racemic methylone
